Test results from patent publication US7491794B2, “Macrocyclic compounds as inhibitors of viral replication” (Intermune, Inc., priority 2003, dated 2009).

These molecules were tested against T1, NS3-NS4A protease (Hepatitis C virus genotype 1a, UniProt P27958) (assay: NS3-NS4A protease assay (NS3 inhibition assay, RETS1 substrate), Section B). Conditions: not given.
T1 construct: Recombinant E. coli or Baculovirus full-length NS3 was diluted to 3.33 μM with assay buffer; made in house; host or cells: E. coli or baculovirus (BV) system
T1 sequence (P27958 1027-1657): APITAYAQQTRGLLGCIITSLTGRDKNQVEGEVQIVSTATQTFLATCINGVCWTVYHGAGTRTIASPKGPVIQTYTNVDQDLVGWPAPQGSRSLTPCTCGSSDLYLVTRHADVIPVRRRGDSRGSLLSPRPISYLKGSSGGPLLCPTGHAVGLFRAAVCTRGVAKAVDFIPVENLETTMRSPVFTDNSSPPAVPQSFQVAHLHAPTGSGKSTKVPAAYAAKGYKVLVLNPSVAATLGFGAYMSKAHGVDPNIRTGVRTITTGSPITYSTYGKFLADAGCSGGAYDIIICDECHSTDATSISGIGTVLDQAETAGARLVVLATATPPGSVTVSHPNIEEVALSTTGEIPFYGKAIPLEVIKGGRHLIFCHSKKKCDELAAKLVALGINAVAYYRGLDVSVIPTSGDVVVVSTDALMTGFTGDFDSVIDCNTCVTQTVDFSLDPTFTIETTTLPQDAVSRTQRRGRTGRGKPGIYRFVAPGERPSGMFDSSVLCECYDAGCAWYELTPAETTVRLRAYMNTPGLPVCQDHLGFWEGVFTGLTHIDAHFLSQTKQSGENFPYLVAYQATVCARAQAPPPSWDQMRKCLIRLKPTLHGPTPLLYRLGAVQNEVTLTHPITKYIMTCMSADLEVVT
Type: biochemical
Protocol: NS3 complex formation with NS4A-2
Recombinant E. coli or Baculovirus full-length NS3 was diluted to 3.33 μM with assay buffer and the material transferred to an eppendorf tube and place in water bath in 4° C. refrigerator. The appropriate amount of NS4A-2 to 8.3 mM in assay buffer was added to equal the volume of NS3 in step 2.1.1 (conversion factor −3.8 mg/272 μL assay buffer). The material was transferred to an eppendorf tube and placed in a water bath in a 4° C. refrigerator.
After equilibration to 4° C., equal volumes of NS3 and NS4A-2 solutions were combined in an eppendorf tube, mixed gently with a manual pipettor, and the mixture incubated for 15 minutes in the 4° C. water bath. Final concentrations in the mixture were 1.67 μM NS3, 4.15 mM NS4A-2 (2485-fold molar excess NS4A-2).
After 15 minutes at 4° C., the NS3/NS4A-2 eppendorf tube was removed and placed in a room temperature water bath for 10 minutes. NS3/NS4A-2 was aliquoted at appropriate volumes and store at −80° C. (E. coli NS3 run at 2 nM in assay, aliquot at 25 μL. BV NS3 run at 3 nM in assay, aliquot at 30 μL.
Step 2.2.5. Sample compounds were dissolved to 10 mM in DMSO then diluted to 2.5 mM (1:4) in DMSO.
Step 2.2.6. The E. coli NS3/NS4A-2 was diluted to 4 nM NS3 (1:417.5 of 1.67 μM stock−18 μL 1.67 μM stock+7497 μL assay buffer).
The BV NS3/NS4A-2 was diluted to 6 nM NS3 (1:278.3 of 1.67 μM stock−24 μL 1.67 μM stock+6655 μL assay buffer).
Step 2.2.7. Using the manual multichannel pipettor, and being careful not to introduce bubbles into the plate, 50 μL assay buffer was added to wells A01-H01 of a black Costar 96-well polypropylene storage plate.
Step 2.2.8. Using the manual multichannel pipettor, and being careful not to introduce bubbles into the plate, 50 μL of diluted NS3/NS4A-2 from step 2.2.6 was added to wells A02-H12 of plate in step 2.2.7.
Step 2.2.9. Using the manual multichannel pipettor, and being careful not to introduce bubbles into the plate, 25 μL of the wells in drug dilution plate in step 2.2.5 were transferred to corresponding wells in assay plate in step 2.2.8. The tips on multichannel pipettor were changed for each row of compounds transferred.
Step 2.2.10. Using the manual multichannel pipettor, and being careful not to introduce bubbles into the plate, the wells from the assay plate in step 2.2.9 were mixed by aspirating and dispensing 35 μL of the 75 μL in each well five times. The tips on multichannel pipettor were changed for each row of wells mixed.
Step 2.2.11. The plate was covered with a polystyrene plate lid, and the plate from step 2.2.10 containing NS3 protease and sample compounds was pre-incubated 10 minutes at room temperature.
While the plate from step 2.2.11 was pre-incubating, the RETS1 substrate was diluted in a 15 mL polypropylene centrifuge tube. The RETS1 substrate was diluted to 8 μM (1:80.75 of 646 μM stock−65 μL 646 μM stock+5184 μL assay buffer).
After the plate in step 2.2.11 was done pre-incubating, and using the manual multichannel, 25 μL of substrate was added to all wells on the plate. The contents of the wells were quickly mixed, as in step 2.2.10, but mixing 65 μL of the 100 μL in the wells.
The plate was read in kinetic mode on the Molecular Devices SpectraMax Gemini XS plate reader. Reader settings: Read time: 30 minutes, Interval: 36 seconds, Reads: 51, Excitation λ: 335 nm, Emission λ: 495 nm, cutoff: 475 nm, Automix: off, Calibrate: once, PMT: high, Reads/well: 6, Vmax pts: 21 or 28/51 depending on length of linearity of reaction.
IC50s were determined using a four parameter curve fit equation, and converted to Ki's using the following Km's:
where Ki=IC50/(1+[S]/Km))
CC(C)[C@@H](NC(=O)OC(C)(C)C)C(=O)N[C@H]1CCCCC/C=C\[C@@H]2C[C@@]2(C(=O)O)NC(=O)[C@@H]2C[C@@H](OC(=O)N3CCc4ccccc4C3)CN2C1=O [AR00298989, (1S,4R,6S,14S,18R)-14-(2-tert-Butoxycarbonylamino-3-methyl-butyrylamino)-18-(3,4-dihydro-1H-isoquinoline-2-carbonyloxy)-2,15-dioxo-3,16-diaza-tricyclo[14.3.0.0^4,6]nonadec-7-ene-4-carboxylic acid] gave an IC50 of under 10 µM.
CC(C)[C@@H](N)C(=O)N[C@H]1CCCCC/C=C\[C@@H]2C[C@@]2(C(=O)O)NC(=O)[C@@H]2C[C@@H](OC(=O)N3CCc4ccccc4C3)CN2C1=O [AR00298990, (1S,4R,6S,14S,18R)-14-(2-Amino-3-methyl-butyrylamino)-18-(3,4-dihydro-1H-isoquinoline-2-carbonyloxy)-2,15-dioxo-3,16-diaza-tricyclo[14.3.0.0^4,6]nonadec-7-ene-4-carboxylic acid] showed an IC50 of under 10 µM.

Same assay, conditions: read-out: NS3-NS4A IC50
Molecule CC(C)(C)OC(=O)N[C@H]1CCCCC/C=C\[C@H]2C[C@]2(C(=O)O)NC(=O)[C@@H]2C[C@@H](OC(=O)N3CCc4ccccc4C3)CN2C1=O [AR00220122, (1S,4S,6R,14S,18R)-14-tert-Butoxycarbonylamino-18-(3,4-dihydro-1H-isoquinoline-2-carbonyloxy)-2,15-dioxo-3,16-diaza-tricyclo[14.3.0.0^4,6]nonadec-7-ene-4-carboxylic acid] has an IC50 of under 50 µM.
In the case of COc1cc2c(cc1OC)CN(C(=O)O[C@@H]1C[C@H]3C(=O)N[C@]4(C(=O)O)C[C@H]4/C=C\CCCCC[C@H](NC(=O)OC(C)(C)C)C(=O)N3C1)CC2 [AR00226824, (1S,4R,6S,14S,18R)-14-tert-Butoxycarbonylamino-18-(6,7-dimethoxy-3,4-dihydro-1H-isoquinoline-2-carbonyloxy)-2,15-dioxo-3,16-diaza-tricyclo[14.3.0.0^4,6]nonadec-7-ene-4-carboxylic acid], the IC50 is reported as under 10 µM.
CC(C)(C)OC(=O)N[C@H]1CCCCC/C=C\[C@@H]2C[C@@]2(C(=O)O)NC(=O)[C@@H]2C[C@@H](OC(=O)N3CCc4c([nH]c5ccccc45)C3)CN2C1=O [AR00226825, (1S,4R,6S,14S,18R)-14-tert-Butoxycarbonylamino-2,15-dioxo-18-(1,3,4,9-tetrahydro-b-carboline-2-carbonyloxy)-3,16-diaza-tricyclo[14.3.0.0^4,6]nonadec-7-ene-4-carboxylic acid] gave an IC50 of under 10 µM.
For O=C(N[C@H]1CCCCC/C=C\[C@@H]2C[C@@]2(C(=O)O)NC(=O)[C@@H]2C[C@@H](OC(=O)N3CCc4ccccc4C3)CN2C1=O)OC1CCCC1 [AR00247310, (1S,4R,6S,14S,18R)-14-Cyclopentyloxycarbonylamino-18-(3,4-dihydro-1H-isoquinoline-2-carbonyloxy)-2,15-dioxo-3,16-diaza-tricyclo[14.3.0.0^4,6]nonadec-7-ene-4-carboxylic acid], the IC50 was under 1 µM.
For CC(C)(C)C(=O)N[C@H]1CCCCC/C=C\[C@@H]2C[C@@]2(C(=O)O)NC(=O)[C@@H]2C[C@@H](OC(=O)N3CCc4ccccc4C3)CN2C1=O [AR00248687, (1S,4R,6S,14S,18R)-18-(3,4-Dihydro-1H-isoquinoline-2-carbonyloxy)-14-(2,2-dimethyl-propionylamino)-2,15-dioxo-3,16-diaza-tricyclo[14.3.0.0^4,6]nonadec-7-ene-4-carboxylic acid], the IC50 was under 1 µM.
Work on CC(C)C(=O)N[C@H]1CCCCC/C=C\[C@@H]2C[C@@]2(C(=O)O)NC(=O)[C@@H]2C[C@@H](OC(=O)N3CCc4ccccc4C3)CN2C1=O [AR00248688, (1S,4R,6S,14S,18R)-18-(3,4-Dihydro-1H-isoquinoline-2-carbonyloxy)-14-isobutyrylamino-2,15-dioxo-3,16-diaza-tricyclo[14.3.0.0^4,6]nonadec-7-ene-4-carboxylic acid] yielded an IC50 of under 10 µM.
O=C(N[C@H]1CCCCC/C=C\[C@@H]2C[C@@]2(C(=O)O)NC(=O)[C@@H]2C[C@@H](OC(=O)N3CCc4ccccc4C3)CN2C1=O)C1CCCC1 [AR00248689, (1S,4R,6S,14S,18R)-14-(Cyclopentanecarbonyl-amino)-18-(3,4-dihydro-1H-isoquinoline-2-carbonyloxy)-2,15-dioxo-3,16-diaza-tricyclo[14.3.0.0^4,6]nonadec-7-ene-4-carboxylic acid] gave an IC50 of under 1 µM.
CC(C)(C)OC(=O)N[C@H]1CCCCC/C=C\[C@@H]2C[C@@]2(C(=O)O)NC(=O)[C@@H]2C[C@@H](NC(=O)N3CCc4ccccc4C3)CN2C1=O [AR00287262, (1S,4R,6S,14S,18R)-14-tert-butoxycarbonylamino-18-[(3,4-dihydro-1H-isoquinoline-2-carbonyl)-amino]-2,15-dioxo-3,16-diaza-tricyclo[14.3.0.0^4,6]nonadec-7-ene-4-carboxylic acid] gave an IC50 of under 10 µM.
In the case of CC(C)(C)OC(=O)N[C@H]1CCCCC/C=C\[C@@H]2C[C@@]2(C(=O)O)NC(=O)[C@@H]2C[C@@H](OC(=O)N3CCc4cccc(C(F)(F)F)c4C3)CN2C1=O [AR00294382, (1S,4R,6S,14S,18R)-14-tert-Butoxycarbonylamino-2,15-dioxo-18-(8-trifluoromethyl-3,4-dihydro-1H-isoquinoline-2-carbonyloxy)-3,16-diaza-tricyclo[14.3.0.0^4,6]nonadec-7-ene-4-carboxylic acid], the IC50 is reported as under 1 µM.
In the case of CC(C)(C)OC(=O)N[C@H]1CCCCC/C=C\[C@@H]2C[C@@]2(C(=O)O)NC(=O)[C@@H]2C[C@@H](OC(=O)N3CCc4cc(C(F)(F)F)ccc4C3)CN2C1=O [AR00294383, (1S,4R,6S,14S,18R)-14-tert-Butoxycarbonylamino-2,15-dioxo-18-(6-trifluoromethyl-3,4-dihydro-1H-isoquinoline-2-carbonyloxy)-3,16-diaza-tricyclo[14.3.0.0^4,6]nonadec-7-ene-4-carboxylic acid], the IC50 is reported as under 10 µM.
CC(C)(C)OC(=O)N[C@H]1CCCCC/C=C\[C@@H]2C[C@@]2(C(=O)O)NC(=O)[C@@H]2C[C@@H](OC(=O)N3CCc4ccccc4C3CN3CCCCC3)CN2C1=O (stereo partly drawn) [AR00301383, (1S,4R,6S,14S,18R)-14-tert-Butoxycarbonylamino-2,15-dioxo-18-(1-piperidin-1-ylmethyl-3,4-dihydro-1H-isoquinoline-2-carbonyloxy)-3,16-diaza-tricyclo[14.3.0.0^4,6]nonadec-7-ene-4-carboxylic acid] showed an IC50 of under 10 µM.
CC(C)(C)OC(=O)N[C@H]1CCCCC/C=C\[C@@H]2C[C@@]2(C(=O)O)NC(=O)[C@@H]2C[C@@H](OC(=O)N3CCc4ccc(Cl)cc4C3)CN2C1=O [AR00304062, (1S,4R,6S,14S,18R)-14-tert-Butoxycarbonylamino-18-(7-chloro-3,4-dihydro-1H-isoquinoline-2-carbonyloxy)-2,15-dioxo-3,16-diaza-tricyclo[14.3.0.0^4,6]nonadec-7-ene-4-carboxylic acid] showed an IC50 of under 10 µM.
For CC(C)(C)OC(=O)N[C@H]1CCCCC/C=C\[C@@H]2C[C@@]2(C(=O)O)NC(=O)[C@@H]2C[C@@H](OC(=O)N3CCc4nc(N)sc4C3)CN2C1=O [AR00304154, (1S,4R,6S,14S,18R)-18-(2-Amino-6,7-dihydro-4H-thiazolo[5,4-c]pyridine-5-carbonyloxy)-14-tert-butoxycarbonylamino-2,15-dioxo-3,16-diaza-tricyclo[14.3.0.0^4,6]nonadec-7-ene-4-carboxylic acid], the IC50 was under 10 µM.
